Data as given in PubChem BioAssay AID1963826 (Molecular Pharmacology Branch, DTP, NCI, 2024).
Values joined by “and” are separate entries in the source; they are usually repeats but may differ in a detail not shown here. Identical values can stand only once.

Test system: 926638-142-R-J1-PDC complex spheroid viability
Assay: Anticancer human tumor 926638-142-R-J1-PDC patient-derived endometrial carcinoma cell line growth inhibition [POLQ]
Conditions: for viability, T/C: stronger effect = lower value
Procedure: Multicellular complex tumor spheroid response to Polymerase (POL) inhibitors (novobiocin, ART-558, RP6685) in combination with a variety of drugs and investigational agents in selected tumor cell lines
The POL inhibitors (novobiocin, ART-558, and RP6685) were evaluated both individually and in combination with standard of care and investigational anticancer small molecules within a complex spheroid model of solid tumors. . Complex spheroids include a stromal component modeled by human endothelial cells (HUVEC) and fibroblasts modeled by human mesenchymal stem cells (MSCs). The concentration ranges selected for each drug and investigational agent were based upon clinically achievable concentrations if the clinical Cmax of the agent was known.
Compounds. The drugs and investigational agents: novobiocin (NSC847541), ART-558 (NSC835418), RP-6685 (NSC848927), peposertib (NSC802822), ceralasertib (NSC780249), elimusertib (NSC800525), camonsertib (NSC841442), AZD-1390 (NSC803789), olaparib (NSC753686), talazoparib (NSC767125), rucaparib (NSC756644), sotorasib (NSC818433), MRTX-1133 (NSC836407), SN-38 (NSC673596), topotecan (NSC609699), epotoside (NSC141540), doxorubicin (NSC123127), gemcitabine (NSC613327), 5-fluorouracil (NSC19893), paclitaxel (NSC125973), vemurafenib (NSC761431), MSA-2 (NSC828583), SN-011 (NSC837082), adavosertib (NSC754352), prexasertib (NSC758257), carboplatin (NSC241240) and oxaliplatin (NSC266046), were obtained from the National Cancer Institute (NCI) Developmental Therapeutics Program Chemical Repository (21). The FDA-approved anticancer drug set is available from the Developmental Therapeutics Program at https://dtp.cancer.gov/organization/dscb/obtaining/. […] The stock solutions were prepared in dimethyl sulfoxide (DMSO, Sigma-Aldrich, St. Louis, MO, cat. D2650), except for the platinum compounds which were prepared in saline (Quality Biological, Gaithersburg, MD, cat. 114-055-101), at 800-fold the tested concentration and stored at -70 degrees C prior to their use. All drugs and investigational agents were tested over a range starting from a high concentration at or near the clinical Cmax and decreasing in half-log increments. If the clinical Cmax for an agent had not been determined, the highest concentration tested was 10 microM, except for SN-38, which was tested at a high concentration of 1 microM.
Cell Culture. All cells were maintained in an incubator at 37 degrees C and 5% CO2 with 95% humidity. The PDC lines were cultured according to standard operating procedures established by the NCI PDMR (https://pdmr.cancer.gov). Table 3 of the manuscript, lists the cell lines along with the number of the three cell types plated to form the mct-spheroids and media for tumor cell growth. After thawing, all PDC lines, except 997537-175-T-J1-PDC and 415267-285-R-J2-PDC, were cultured in Matrigel-coated flasks prepared with a working solution of 1X Ham's F-12 nutrient mix, without supplementation (Thermo Fisher Scientific, cat. 11765054), 100 U/mL penicillin-streptomycin (Thermo Fisher Scientific, cat. 15140122), and 2.5% Matrigel (Corning Inc., Corning, NY, cat. 354248) for the first three passages. The two PDC lines 997537-175-T-J1-PDC and 415267-285-R-J2-PDC were cultured on uncoated flasks. The 857933-349-R-J2-PDC line was cultured in 6C/Colon 1B media containing advanced DMEM/F-12 (Thermo Fisher Scientific, cat. 12634028), 10 mM HEPES (Thermo Fisher Scientific, cat. 15630080), 1X GlutaMAX supplement (Thermo Fisher Scientific, cat. 35050061), 0.1 mg/mL primocin (InvivoGen, San Diego, CA, cat. ant-pm-2), 10% defined fetal bovine serum, heat inactivated (HyClone Laboratories Inc., Logan, UT, cat. SH30070.03HI), 50% L-WRN conditioned media (ATCC, cat. CRL-3276), 1.25 mM N-Acetyl-L-cysteine (Sigma-Aldrich, cat. A9165), 10 mM nicotinamide (Sigma-Aldrich, cat. N0636), 1X B-27 supplement (Thermo Fisher Scientific, cat. 17504044), 1X N-2 supplement (Thermo Fisher Scientific, cat. […]

[1] = curve of first compound, second compound 0.0316 µM
[2] = curve of first compound, second compound 0.1 µM
[3] = curve of first compound, second compound 0.316 µM
[4] = curve of first compound, second compound 1 µM
[5] = curve of first compound, second compound 3.16 µM
[6] = curve of first compound, second compound 10 µM
[7] = second compound 0.0316 µM, first compound 0.0316 µM
[8] = second compound 0.0316 µM, first compound 0.1 µM
[9] = second compound 0.0316 µM, first compound 0.316 µM
[10] = second compound 0.0316 µM, first compound 1 µM
[11] = second compound 0.0316 µM, first compound 3.16 µM
[12] = second compound 0.0316 µM, first compound 10 µM
[13] = second compound 0.1 µM, first compound 0.0316 µM
[14] = second compound 0.1 µM, first compound 0.1 µM
[15] = second compound 0.1 µM, first compound 0.316 µM
[16] = second compound 0.1 µM, first compound 1 µM
[17] = second compound 0.1 µM, first compound 3.16 µM
[18] = second compound 0.1 µM, first compound 10 µM
[19] = second compound 0.316 µM, first compound 0.0316 µM
[20] = second compound 0.316 µM, first compound 0.1 µM
[21] = second compound 0.316 µM, first compound 0.316 µM
[22] = second compound 0.316 µM, first compound 1 µM
[23] = second compound 0.316 µM, first compound 3.16 µM
[24] = second compound 0.316 µM, first compound 10 µM
[25] = second compound 1 µM, first compound 0.0316 µM
[26] = second compound 1 µM, first compound 0.1 µM
[27] = second compound 1 µM, first compound 0.316 µM
[28] = second compound 1 µM, first compound 1 µM
[29] = second compound 1 µM, first compound 3.16 µM
[30] = second compound 1 µM, first compound 10 µM
[31] = second compound 3.16 µM, first compound 0.0316 µM
[32] = second compound 3.16 µM, first compound 0.1 µM
[33] = second compound 3.16 µM, first compound 0.316 µM
[34] = second compound 3.16 µM, first compound 1 µM
[35] = second compound 3.16 µM, first compound 3.16 µM
[36] = second compound 3.16 µM, first compound 10 µM
[37] = second compound 10 µM, first compound 0.0316 µM
[38] = second compound 10 µM, first compound 0.1 µM
[39] = second compound 10 µM, first compound 0.316 µM
[40] = second compound 10 µM, first compound 1 µM
[41] = second compound 10 µM, first compound 3.16 µM
[42] = second compound 10 µM, first compound 10 µM
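Further: spheroids exposed to drugs for one week before readout.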
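Wherever viability, T/C is given: percent viability relative to DMSO vehicle control wells set as 100%.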

SMILES: CCc1cc2c(N3CCc4c(cc(Cn5ccnc5)cc4-c4cn(C)nc4C(F)(F)F)C3=O)cc(C)nc2c(OC)n1 + COC1C(OC(N)=O)C(O)C(Oc2ccc3c(O)c(NC(=O)c4ccc(O)c(CC=C(C)C)c4)c(=O)oc3c2C)OC1(C)C
- IC50 [1]: 400 nM
- IC50 [2]: 277 nM
- IC50 [3]: 313 nM
- IC50 [4]: 214 nM
- IC50 [5]: 244 nM
- IC50 [6]: 667 nM
- viability, T/C [7]: 79.3%
- viability, T/C [8]: 65.2%
- viability, T/C [9]: 49.6%
- viability, T/C [10]: 42.6%
- viability, T/C [11]: 33.4%
- viability, T/C [12]: 23.4%
- viability, T/C [13]: 72.5%
- viability, T/C [14]: 73%
- viability, T/C [15]: 46.9%
- viability, T/C [16]: 27.6%
- viability, T/C [17]: 26%
- viability, T/C [18]: 23.8%
- viability, T/C [19]: 68%
- viability, T/C [20]: 52%
- viability, T/C [21]: 52.7%
- viability, T/C [22]: 43.6%
- viability, T/C [23]: 31.1%
- viability, T/C [24]: 23.5%
- viability, T/C [25]: 88.8%
- viability, T/C [26]: 60.7%
- viability, T/C [27]: 46.9%
- viability, T/C [28]: 31.2%
- viability, T/C [29]: 28.8%
- viability, T/C [30]: 28.9%
- viability, T/C [31]: 60.1%
- viability, T/C [32]: 58.4%
- viability, T/C [33]: 47.1%
- viability, T/C [34]: 35.8%
- viability, T/C [35]: 27.6%
- viability, T/C [36]: 21.6%
- viability, T/C [37]: 66.9%
- viability, T/C [38]: 65.8%
- viability, T/C [39]: 62.3%
- viability, T/C [40]: 43.1%
- viability, T/C [41]: 29.7%
- viability, T/C [42]: 25%

SMILES: CNCc1ccc(-c2[nH]c3cc(F)cc4c3c2CCNC4=O)cc1 + Cc1cccc(N(C)C(=O)C2C(O)CCN2c2nc(C)cc(C(F)(F)F)c2C#N)c1
- IC50 [1]: > 10000 nM
- IC50 [2]: > 10000 nM
- IC50 [3]: > 10000 nM
- IC50 [4]: > 10000 nM
- IC50 [5]: > 10000 nM
- IC50 [6]: > 10000 nM
- viability, T/C [7]: 69.2%
- viability, T/C [8]: 112%
- viability, T/C [9]: 100%
- viability, T/C [10]: 93.8%
- viability, T/C [11]: 89.9%
- viability, T/C [12]: 82%
- viability, T/C [13]: 103%
- viability, T/C [14]: 97.9%
- viability, T/C [15]: 85.5%
- viability, T/C [16]: 80.1%
- viability, T/C [17]: 75.6%
- viability, T/C [18]: 74.7%
- viability, T/C [19]: 104%
- viability, T/C [20]: 92.7%
- viability, T/C [21]: 84.5%
- viability, T/C [22]: 89.7%
- viability, T/C [23]: 100%
- viability, T/C [24]: 81%
- viability, T/C [25]: 91.3%
- viability, T/C [26]: 89.6%
- viability, T/C [27]: 89.7%
- viability, T/C [28]: 89%
- viability, T/C [29]: 81%
- viability, T/C [30]: 79.1%
- viability, T/C [31]: 97.8%
- viability, T/C [32]: 92.8%
- viability, T/C [33]: 85.1%
- viability, T/C [34]: 87.9%
- viability, T/C [35]: 98.5%
- viability, T/C [36]: 69.7%
- viability, T/C [37]: 88.8%
- viability, T/C [38]: 87.7%
- viability, T/C [39]: 96.2%
- viability, T/C [40]: 87.2%
- viability, T/C [41]: 75.4%
- viability, T/C [42]: 71.7%

SMILES: O=C(c1cc(Cc2n[nH]c(=O)c3ccccc23)ccc1F)N1CCN(C(=O)C2CC2)CC1
- viability, T/C (compound 0.0316 µM): 88.8% and 70.9% and 97%
- viability, T/C (compound 0.1 µM): 85.3% and 91.2% and 85.1%
- viability, T/C (compound 0.316 µM): 86.5% and 105% and 91.6%
- viability, T/C (compound 1 µM): 88.9% and 104% and 100%
- viability, T/C (compound 3.16 µM): 85% and 76.3% and 79.9%
- viability, T/C (compound 10 µM): 70.9% and 87.5% and 73%
- IC50 (curve of compound): > 10000 nM

SMILES: CC1COCCN1c1cc(C2(O)CC3CCC(C2)O3)c2cnn(-c3ccn[nH]3)c2n1 (stereo not drawn) + COC1C(OC(N)=O)C(O)C(Oc2ccc3c(O)c(NC(=O)c4ccc(O)c(CC=C(C)C)c4)c(=O)oc3c2C)OC1(C)C
- IC50 [1]: 212 nM
- IC50 [2]: 204 nM
- IC50 [3]: 200 nM
- IC50 [4]: 217 nM
- IC50 [5]: 222 nM
- IC50 [6]: 181 nM
- viability, T/C [7]: 106%
- viability, T/C [8]: 74.5%
- viability, T/C [9]: 35.6%
- viability, T/C [10]: 17.5%
- viability, T/C [11]: 7.23%
- viability, T/C [12]: 1.82%
- viability, T/C [13]: 108%
- viability, T/C [14]: 64.9%
- viability, T/C [15]: 46%
- viability, T/C [16]: 12.8%
- viability, T/C [17]: 6.56%
- viability, T/C [18]: 1.94%
- viability, T/C [19]: 102%
- viability, T/C [20]: 69.1%
- viability, T/C [21]: 37.4%
- viability, T/C [22]: 16.5%
- viability, T/C [23]: 7.59%
- viability, T/C [24]: 1.6%
- viability, T/C [25]: 86.9%
- viability, T/C [26]: 75.8%
- viability, T/C [27]: 36.8%
- viability, T/C [28]: 12.9%
- viability, T/C [29]: 7.07%
- viability, T/C [30]: 1.87%
- viability, T/C [31]: 90.5%
- viability, T/C [32]: 77.7%
- viability, T/C [33]: 36.5%
- viability, T/C [34]: 15%
- viability, T/C [35]: 6.73%
- viability, T/C [36]: 2%
- viability, T/C [37]: 91.4%
- viability, T/C [38]: 69.4%
- viability, T/C [39]: 31.1%
- viability, T/C [40]: 13%
- viability, T/C [41]: 7.88%
- viability, T/C [42]: 1.74%
